In the test the target is T1, LRRK2 wild type (recombinant human, catalytic domain amino acids 970-2527, GST-tagged) (Homo sapiens, UniProt Q5S007).
T1 construct: The wild type used was recombinant human, catalytic domain (amino acids 970-2527) GST-tagged, expressed in insect cells; GST; purchased Invitrogen Corporation PV4873; host or cells: insect cells
Nature of the test: LRRK2 wild type protein kinase assay ([γ-33P] ATP, peptide substrate […]), IC50. Type of test: biochemical. Particulars: LRRK2 (variant not given); read-out: Potency score, LRRK2 IC50. The source says: All LRRK2 protein kinases were of human origin and were sourced from Invitrogen Corporation (Carlsbad, Calif. 92008 USA) unless otherwise indicated. The active mutant used was recombinant human, catalytic domain (amino acids 970-2527) containing a G2019S mutation, GST-tagged, expressed in insect cells (Invitrogen Cat#PV4881). The wild type used was recombinant human, catalytic domain (amino acids 970-2527) GST-tagged, expressed in insect cells (Invitrogen Cat#PV4873). The kinase dead mutant used was recombinant human, catalytic domain (amino acids 970-2527) containing a D1994A mutation, GST-tagged, expressed in insect cells (Invitrogen Cat#PM4041AE). No special measures were taken to activate any of the kinases.
All assays were carried out at room temperature (˜21° C.) and were linear with respect to time and enzyme concentration under the conditions used. Assays were performed for 180 min in a 96 well format. LRRK2 was present at a concentration of approximately 5 nM. The enzyme was diluted and assayed in 50 mM Tris-HCl pH7.5, 0.1 mM EGTA, 1 mM DTT and 10 mM MgCl2. The concentration of magnesium chloride in the assay was 10 mM. The [γ-33P] […] The peptide substrate in the assay was […] at 100 μM.
The assays were initiated with Mg/ATP and stopped by the addition of 25 μl/well 50% orthophosphoric acid. Reactions were harvested onto Whatman P81 Unifilter Plates (Fisher Scientific. Loughborough, LE115RG, UK. Cat# FDU-105-020U) using a Tomtec harvester. (Tomtec Hamden, Conn. 06514. USA) Plates were counted using a Perkin Elmer Top Count NX7. (Perkin Elmer, Shelton Conn. 06484-4794 USA)
IC50 values of inhibitors were determined after carrying out assays at 10 different concentrations of each compound in duplicate.

The structures appear in SMILES notation. Where only a bound is given, the exact number is not on record here.

IC50 data for 18 compounds are collected here from patent US20170320870A1 (Medical Research Council Technology, priority 2009, published 2017).

T1 sequence (Q5S007 970-2527): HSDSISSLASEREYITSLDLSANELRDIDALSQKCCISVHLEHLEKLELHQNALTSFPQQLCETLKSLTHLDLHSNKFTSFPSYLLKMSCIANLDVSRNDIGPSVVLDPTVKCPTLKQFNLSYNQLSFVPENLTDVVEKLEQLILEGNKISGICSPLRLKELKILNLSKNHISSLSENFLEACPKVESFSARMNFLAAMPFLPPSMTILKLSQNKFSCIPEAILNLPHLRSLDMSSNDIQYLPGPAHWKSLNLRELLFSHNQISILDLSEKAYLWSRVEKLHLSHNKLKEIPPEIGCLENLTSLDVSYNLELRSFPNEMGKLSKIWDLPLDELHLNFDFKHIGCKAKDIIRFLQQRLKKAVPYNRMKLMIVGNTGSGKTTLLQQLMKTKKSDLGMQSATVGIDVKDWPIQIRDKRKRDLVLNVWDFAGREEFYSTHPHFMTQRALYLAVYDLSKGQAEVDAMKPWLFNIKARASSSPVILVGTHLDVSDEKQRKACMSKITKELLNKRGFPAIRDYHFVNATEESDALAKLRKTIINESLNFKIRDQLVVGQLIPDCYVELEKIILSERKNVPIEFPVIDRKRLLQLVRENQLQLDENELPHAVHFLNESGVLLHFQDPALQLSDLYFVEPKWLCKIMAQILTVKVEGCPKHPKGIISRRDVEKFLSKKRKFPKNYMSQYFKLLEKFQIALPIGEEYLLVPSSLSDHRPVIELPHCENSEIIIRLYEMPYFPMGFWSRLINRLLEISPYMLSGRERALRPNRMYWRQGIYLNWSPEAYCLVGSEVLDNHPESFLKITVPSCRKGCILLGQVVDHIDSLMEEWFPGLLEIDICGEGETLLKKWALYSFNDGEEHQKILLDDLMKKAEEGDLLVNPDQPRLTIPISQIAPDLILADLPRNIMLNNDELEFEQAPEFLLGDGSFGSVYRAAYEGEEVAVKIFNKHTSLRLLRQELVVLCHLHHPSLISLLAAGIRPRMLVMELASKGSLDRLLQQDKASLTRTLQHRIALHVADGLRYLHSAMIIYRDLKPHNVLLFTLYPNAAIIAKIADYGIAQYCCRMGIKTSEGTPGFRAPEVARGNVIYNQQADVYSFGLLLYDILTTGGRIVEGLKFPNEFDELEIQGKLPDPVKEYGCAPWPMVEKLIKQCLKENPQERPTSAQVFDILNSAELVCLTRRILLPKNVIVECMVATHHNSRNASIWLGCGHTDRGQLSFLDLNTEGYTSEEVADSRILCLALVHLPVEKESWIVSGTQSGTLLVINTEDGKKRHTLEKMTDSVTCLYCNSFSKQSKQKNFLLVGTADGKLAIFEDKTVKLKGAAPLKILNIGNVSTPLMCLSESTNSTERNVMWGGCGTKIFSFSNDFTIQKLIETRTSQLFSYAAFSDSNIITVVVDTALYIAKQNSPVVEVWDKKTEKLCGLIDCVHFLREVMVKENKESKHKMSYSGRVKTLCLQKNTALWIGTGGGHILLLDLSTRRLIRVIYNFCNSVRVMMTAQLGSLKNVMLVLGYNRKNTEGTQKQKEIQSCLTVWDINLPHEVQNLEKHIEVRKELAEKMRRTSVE

One may read the IC50 as the concentration that inhibits the measured activity by half. In the case of `O=C(c1cccc(-c2n[nH]c3ccnc(NC4CCCCC4)c23)c1)N1CCOCC1` [Example 153, [3-(4-Cyclohexylamino-1H-pyrazolo[4,3-c]pyridin-3-yl)-phenyl]-morpholin-4-yl-methanone], the IC50 is 1000 to 10000 nM.

Regarding `c1cc2[nH]nc(-c3ccoc3)c2c(OC2CCCCC2)n1` [Example 236, 4-Cyclohexyloxy-3-furan-3-yl-1H-pyrazolo[4,3-c]pyridine], the IC50 is < 100 nM.

Consider `Cc1n[nH]c2ccnc(Nc3ccc(N4CCOCC4)cc3)c12` [Example 85, (3-Methyl-1H-pyrazolo[4,3-c]pyridin-4-yl)-(4-morpholin-4-yl-phenyl)-amine], for which the IC50 lay within 100 to 1000 nM.

`Cc1n[nH]c2ccnc(OC3CCN(C(C)C)CC3)c12` [Example 119, 4-(1-Isopropyl-piperidin-4-yloxy)-3-methyl-1H-pyrazolo[4,3-c]pyridine]: the IC50 was in the range of 1000 to 10000 nM.

On to `CC(=O)N1CCC(CCc2n[nH]c3ccnc(NC4CCCCC4)c23)CC1` [Example 219, 1-{4-[2-(4-Cyclohexylamino-1H-pyrazolo[4,3-c]pyridin-3-yl)-ethyl]-piperidin-1-yl}-ethanone], for which the IC50 lay within 1000 to 10000 nM.

Consider `Cc1n[nH]c2ccnc(N(C)CC(C)C)c12` [Example 91, Isobutyl-methyl-(3-methyl-1H-pyrazolo[4,3-cc]pyridin-4-yl)-amine], for which the IC50 lay within 1000 to 10000 nM.

With `CC(=O)Nc1cccc(-c2n[nH]c3ccnc(NC4CCCCC4)c23)c1` [Example 137, N-[3-(4-Cyclohexylamino-1H-pyrazolo[4,3-c]pyridin-3-yl)-phenyl]-acetamide], the 50% inhibitory concentration (IC50) lay within 1000 to 10000 nM.

For `Cc1n[nH]c2ccnc(Nc3ccc4c(cnn4C)c3)c12` [Example 99, (1-Methyl-1H-indazol-5-yl)-(3-methyl-1H-pyrazolo[4,3-c]pyridin-4-yl)-amine], the IC50 was in the range of 100 to 1000 nM.

As to `Cc1n[nH]c2ccnc(-c3ncco3)c12` [Example 129, 3-Methyl-4-oxazol-2-yl-1H-pyrazolo[4,3-c]pyridine], the IC50 lay in the range of 1000 to 10000 nM.

Regarding `Cc1n[nH]c2ccnc(Nc3cccc(Br)c3)c12` [Example 67, (3-Bromo-phenyl)-(3-methyl-1H-pyrazolo[4,3-c]pyridin-4-yl)-amine], the IC50 fell in the range of 100 to 1000 nM.

Consider `O=C(Nc1cccc(CCc2n[nH]c3ccnc(NC4CCCCC4)c23)c1)C1CCCC1` [Example 225, Cyclopentanecarboxylic acid {3-[2-(4-cyclohexylamino-1H-pyrazolo[4,3-c]pyridin-3-yl)-ethyl]-phenyl}-amide], for which the IC50 was < 100 nM.

For `Cc1n[nH]c2ccnc(NC3CCCCC3)c12` [Example 3, Cyclohexyl-(3-methyl-1H-pyrazolo[4,3-c]pyridin-4-yl)-amine], the IC50 lay in the range of 100 to 1000 nM.

For the compound `CN(C)C(=O)c1ccc(-c2n[nH]c3ccnc(NC4CCCCC4)c23)cc1` [Example 165, 4-(4-Cyclohexylamino-1H-pyrazolo[4,3-c]pyridin-3-yl)-N,N-dimethyl-benzamide], the IC50 fell in the range of 1000 to 10000 nM.

For `c1ccc2c(-c3n[nH]c4ccnc(NC5CCCCC5)c34)cncc2c1` [Example 164, Cyclohexyl-(3-isoquinolin-4-yl-1H-pyrazolo[4,3-c]pyridin-4-yl)-amine], the IC50 fell in the range of 1000 to 10000 nM.

Regarding `Cc1n[nH]c2ccnc(Nc3cnn(C)c3)c12` [Example 88, (3-Methyl-1H-pyrazolo[4,3-c]pyridin-4-yl)-(1-methyl-1H-pyrazol-4-yl)-amine], the IC50 was 100 to 1000 nM.

Turning to `Cc1n[nH]c2ccnc(N[C@H]3CC[C@H](C)CC3)c12` [Example 34, Trans-(4-Methyl-cyclohexyl)-(3-methyl-1H-pyrazolo[4,3-c]pyridin-4-yl)-amine], the 50% inhibitory concentration (IC50) is 100 to 1000 nM.

As to `Cc1n[nH]c2ccnc(O[C@@H]3CCC[C@H]3C)c12` (racemic) [Example 298, Trans-3-Methyl-4-(2-methyl-cyclopentyloxy)-1H-pyrazolo[4,3-c]pyridine], the IC50 is < 100 nM.

For the compound `O=C(CCc1n[nH]c2ccnc(NC3CCCCC3)c12)N1CCCCC1` [Example 169, 3-(4-Cyclohexylamino-1H-pyrazolo[4,3-c]pyridin-3-yl)-1-piperidin-1-yl-propan-1-one], the IC50 lay within 100 to 1000 nM.
